Test results as given in patent US20150119363A1, “METHODS OF TREATING BACTERIAL INFECTIONS” (Rampex Pharmaceuticals, Inc., priority 2012, published 2015).
In brackets after ≈: the same amount, converted by molar mass.

Legend:
[1] = tested on: ECL1004 NMC-A; assay: Dose titration biapenem potentiation assay (MPC1); format: cell-based, Enterobacter cloacae
Experimental: (§1) The potency and spectrum of β-lactamase inhibitors is also determined by assessing their biapenem potentiation activity in a dose titration potentiation assay using strains expressing serine carbapemenases (such as KPC). The potentiation effect is observed as the ability of BLI compounds to inhibit growth in the presence of sub-inhibitory concentration of biapenem. […] Biapenem is present in the test medium at 1 μg/mL. Compounds tested at the highest concentration of 40 μg/mL. […] Table 5 summarizes BLI potency of biapenem potentiation (MPC1). Biapenem MIC for each strain is also shown.

[2] = tested on: Enterobacter cloacae ECL1059 (KPC-3, SHV-12, TEM-1); assay: Checkerboard assay, Compound 5 with biapenem; format: cell-based; conditions: Enterobacter cloacae
Text: (§2) The potentiation effect is observed by the reduction of the minimum inhibitory concentration of β-lactam antibiotics in the presence of β-lactamase inhibitors (BLIs). […] Methods for Dilution of Antimicrobial Susceptibility Tests for Bacteria That Grow Aerobically—Eighth Edition; Approved Standard. CLSI Document M07-A8, 2009). In this assay, multiple dilutions of two drugs, namely BLI and β-lactam (biapenem), are being tested, alone and in combination, at concentrations equal to, above and below their respective minimal inhibitory concentrations (MICs). BLIs are solubilized in 10% DMSO at 10 mg/mL. Stock solutions are further diluted, according to the needs of a particular assay, in Mueller Hinton Broth (MHB). Stock solution can be stored at −80° C.
(§3) The checkerboard (CB) assay is performed in microtiter plates. Biapenem is diluted in the x axis, each column containing a single concentration of antibiotic. BLIs are diluted in the y axis, each row containing an equal concentration of BLI. The result of these manipulations is that each well of the microtiter plate contains a unique combination of concentrations of the two agents. The assay is performed in MHB with a final bacterial inoculum of 5×10^5 CFU/mL (from an early-log phase culture). Microtiter plates are incubated during 20 h at 35° C. and are read using a microtiter plate reader (Molecular Devices) at 650 nm as well as visual observation using a microtiter plate reading mirror.

[3] = tested on: Klebsiella pneumoniae KP1088 (KPC-3, SHV-11, TEM-1); assay: Checkerboard assay, Compound 5 with biapenem; format: cell-based; conditions: Klebsiella pneumoniae
Text: as §2, §3

[4] = tested on: Klebsiella pneumoniae KP1082 (KPC-2, SHV-1); assay: Checkerboard assay, Compound 5 with biapenem; format: cell-based; conditions: Klebsiella pneumoniae
Text: as §2, §3

[5] = tested on: Klebsiella pneumoniae KP1004 (KPC-2); assay: Checkerboard assay, Compound 5 with biapenem; format: cell-based; conditions: Klebsiella pneumoniae
Text: as §2, §3

[6] = tested on: Klebsiella oxytoca KX1017 (KPC-2, OXA-2, SHV-30); assay: Checkerboard assay, Compound 5 with biapenem; format: cell-based; conditions: Klebsiella oxytoca
Text: as §2, §3

[7] = tested on: Klebsiella oxytoca KX1018 (KPC-2, SHV-40, OXY-1); assay: Checkerboard assay, Compound 5 with biapenem; format: cell-based; conditions: Klebsiella oxytoca
Text: as §2, §3

[8] = tested on: Enterobacter cloacae ECL1058 (KPC-3, SHV-11, TEM-1); assay: Checkerboard assay, Compound 5 with biapenem; format: cell-based; conditions: Enterobacter cloacae
Text: as §2, §3

[9] = tested on: Klebsiella pneumoniae KP1083 (KPC-3, SHV-1, TEM-1); assay: Checkerboard assay, Compound 5 with biapenem; format: cell-based; conditions: Klebsiella pneumoniae
Text: as §2, §3

[10] = tested on: Klebsiella pneumoniae KP1087 (KPC-2, CTX-M-15, SHV-11, TEM-1); assay: Checkerboard assay, Compound 5 with biapenem; format: cell-based; conditions: Klebsiella pneumoniae
Text: as §2, §3

[11] = tested on: Klebsiella oxytoca KX1019 (KPC-2, OXA-2); assay: Checkerboard assay, Compound 5 with biapenem; format: cell-based; conditions: Klebsiella oxytoca
Text: as §2, §3

[12] = tested on: Escherichia coli EC1007 (KPC-3); assay: Checkerboard assay, Compound 5 with biapenem; format: cell-based; conditions: Escherichia coli
Text: as §2, §3

[13] = tested on: Klebsiella pneumoniae KP1084 (KPC-3, SHV-11, TEM-1); assay: Checkerboard assay, Compound 5 with biapenem; format: cell-based; conditions: Klebsiella pneumoniae
Text: as §2, §3

[14] = tested on: Klebsiella pneumoniae KP1008 (KPC-2); assay: Checkerboard assay, Compound 5 with biapenem; format: cell-based; conditions: Klebsiella pneumoniae
Text: as §2, §3

[15] = tested on: EC1007 KPC-3; assay: Dose titration biapenem potentiation assay (MPC1); format: cell-based, Escherichia coli
Experimental: as §1

[16] = tested on: Escherichia coli (EC1061) NDM-1; assay: Biapenem MIC at various concentrations of Compound 5; format: cell-based; conditions: Escherichia coli
[17] = tested on: Klebsiella pneumonia (KP1004) KPC-2; assay: as above; format: cell-based; conditions: Klebsiella pneumoniae
[18] = tested on: KP1004 KPC-2; assay: Dose titration biapenem potentiation assay (MPC1); format: cell-based, Klebsiella pneumoniae
Experimental: as §1

[19] = tested on: KP1008 KPC-2; assay: Dose titration biapenem potentiation assay (MPC1); format: cell-based, Klebsiella pneumoniae
Experimental: as §1

[20] = tested on: Klebsiella pneumonia (KPM1097) NDM-1, KPC-2; assay: Biapenem MIC at various concentrations of Compound 5; format: cell-based; conditions: Klebsiella pneumoniae
[21] = tested on: Klebsiella pneumoniae KP1004 (KPC-2); assay: Checkerboard assay, biapenem potentiation (MPC8); format: cell-based; conditions: concentration to reduce biapenem MIC 8-fold
Experimental: (§4) The potency and spectrum of β-lactamase inhibitors was determined by assessing their antibiotic potentiation activity.
as §2, §3
(§5) Biapenem is a carbapenem β-lactam; only selected β-lactamases confer resistance to this class of antibiotics. Among them are serine carbapemenases that belong to class A and class D. Biapenem potentiation is studied in strains expressing various carbapenemases from these classes using CB assays. […] Cyclic boronic acid derivatives were capable of reducing biapenem MICs up to 1000-fold (Table 3).

[22] = molecular target: T1, KPC-2 (Klebsiella pneumoniae KP1004 lysate) (Klebsiella pneumoniae, UniProt Q9F663); assay: Inhibition of biapenem hydrolysis by bacterial lysate; format: biochemical
T1 construct: Lysates were prepared from bacteria expressing various β-lactamases as a source of enzymes; endogenous in cells; host or cells: Klebsiella pneumoniae strains KP1004 and KP1008 (freeze-thaw lysate supernatants)
Experimental: (§6) The activity of β-lactamase inhibitors to inhibit hydrolysis of biapenem was studied. Lysates were prepared from bacteria expressing various β-lactamases as a source of enzymes. Bacterial lysates were prepared as follows. A single colony from the fresh overnight plate was transferred to 5 mL of LB broth and grown to OD600=0.6-0.8. Next, this culture was transferred to 500 mL of LB and grown to OD600=0.7-0.9. Cells were pelleted by centrifugation at 5000 RPM (JA-14 rotor) for 15 minutes at room temperature. The pellet was resuspended in 10 mL of PBS. Five freeze-thaw cycles by putting cells at −20° C. and thawing them at the room temperature were next applied. After the last thaw step cells were spun down at 18K for 30 minutes and the supernatant was collected. This lysate was stored at −20° C.
(§7) Next, the activity of bacterial lysates was optimized for biapenem cleavage as follows. 50 μl of buffer A (50 mM Sodium Phosphate pH=7; 0.5% glucose, 1 mM MgCl2) was added to each well of 96-well UV-transparent plate. 50 μl of lysate was titrated vertically in 96-well plate column to generate 2-fold lysate dilutions. 100 μl of buffer A was added to each well, placed in plate reader at 37° C. and incubated for 15 minutes. 50 μl of 50 μg/mL solutions of biapenem in buffer A (pre-incubated at 37° C. for 15 minutes) were added to each well. Hydrolysis of biapenem was measured at 296 nm. This experiment was used to determine the optimal lysate dilution which produced a linear curve of relative UV signal that decreased to approximately OD=0.3-0.5 over 1 hour.
(§8) Finally, the potency of cyclic boronic acid derivative to inhibit the cleavage of biapenem cleavage by bacterial lysates was determined. 100 μl of buffer A (50 mM Sodium Phosphate pH=7; 0.5% glucose, 1 mM MgCl2) was added to each well of 96-well UV-transparent plate. 50 μl of 6× cyclic boronic acid derivative solution in buffer A was titrated vertically in 96-well plate column to generate 3-fold dilutions. 50 μl of diluted lysate in buffer A (optimal dilution is determined in experiment above) was added, and the plate was incubated in the plate reader at 37° C. for 15 minutes. 50 μl of 50 μg/mL solution of biapenem in buffer A (pre-incubated at 37° C. for 15 minutes) were next added to each well and hydrolysis of biapenem was recorded at 296 nm. EC50 of inhibition was determined by plotting the rate of biapenem cleavage vs. cyclic boronic acid derivative concentration.

[23] = molecular target: T2, KPC-2 (Klebsiella pneumoniae KP1008 lysate) (Klebsiella pneumoniae, UniProt Q9F663); assay: as above; format: biochemical
T2 construct: Lysates were prepared from bacteria expressing various β-lactamases as a source of enzymes; endogenous in cells; host or cells: Klebsiella pneumoniae strains KP1004 and KP1008 (freeze-thaw lysate supernatants)
Experimental: as §6, §7, §8

[24] = molecular target: T3, KPC-3 (Escherichia coli EC1007 lysate) (Klebsiella pneumoniae, UniProt Q9F663, H272Y); assay: as above; format: biochemical; conditions: EC1007 KPC-3 lysate; read-out: IC50 (μg/mL) of inhibition of biapenem hydrolysis
T3 construct: Lysates were prepared from bacteria expressing various β-lactamases as a source of enzymes; endogenous in cells; host or cells: Escherichia coli strain EC1007 (freeze-thaw lysate supernatant)
Experimental: as §6, §7, §8

[25] = molecular target: T4, SME-2 (Serratia marcescens SM1000 lysate) (Serratia marcescens, UniProt P52682); assay: as above; format: biochemical; conditions: SM1000 SME-2 lysate; read-out: IC50 (μg/mL) of inhibition of biapenem hydrolysis
T4 construct: Lysates were prepared from bacteria expressing various β-lactamases as a source of enzymes
Experimental: as §6, §7, §8

[26] = tested on: Acinetobacter baumannii AB1057 (OXA-58); assay: Checkerboard assay, biapenem potentiation (MPC8); format: cell-based; conditions: concentration to reduce biapenem MIC 8-fold
Experimental: as §4, §2, §3, §5

[27] = tested on: Acinetobacter baumannii AB1054 (OXA-23); assay: Checkerboard assay, biapenem potentiation (MPC8); format: cell-based; conditions: concentration to reduce biapenem MIC 8-fold
Experimental: as §4, §2, §3, §5

T3 sequence (Q9F663 25-293 H272Y): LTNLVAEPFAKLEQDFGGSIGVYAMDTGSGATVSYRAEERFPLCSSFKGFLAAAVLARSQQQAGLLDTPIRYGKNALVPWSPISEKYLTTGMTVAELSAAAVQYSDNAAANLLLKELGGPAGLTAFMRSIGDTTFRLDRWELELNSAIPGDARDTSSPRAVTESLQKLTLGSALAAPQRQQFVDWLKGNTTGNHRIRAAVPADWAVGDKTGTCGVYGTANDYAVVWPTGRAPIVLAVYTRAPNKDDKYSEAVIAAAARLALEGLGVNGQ
T1 sequence (Q9F663 25-293 limits assumed): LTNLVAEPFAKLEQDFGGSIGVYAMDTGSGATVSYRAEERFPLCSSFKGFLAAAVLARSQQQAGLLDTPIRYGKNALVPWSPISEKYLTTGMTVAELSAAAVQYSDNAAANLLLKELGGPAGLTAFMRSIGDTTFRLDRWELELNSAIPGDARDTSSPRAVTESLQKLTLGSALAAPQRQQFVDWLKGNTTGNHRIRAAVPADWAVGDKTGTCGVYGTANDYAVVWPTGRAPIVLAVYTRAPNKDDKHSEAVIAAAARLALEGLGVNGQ
T2 sequence (Q9F663 25-293 limits assumed): as above
T4 sequence (P52682 28-294 limits assumed): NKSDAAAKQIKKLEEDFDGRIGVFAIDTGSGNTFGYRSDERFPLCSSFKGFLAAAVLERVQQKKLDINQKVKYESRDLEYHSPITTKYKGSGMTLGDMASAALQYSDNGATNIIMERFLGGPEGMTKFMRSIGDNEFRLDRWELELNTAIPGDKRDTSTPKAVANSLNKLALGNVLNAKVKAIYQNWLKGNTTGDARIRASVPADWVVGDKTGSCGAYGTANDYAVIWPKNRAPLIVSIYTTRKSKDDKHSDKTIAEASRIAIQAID

## C[C@@H](O)[C@H]1C(=O)N2C(C(=O)[O-])=C(SC3Cn4cnc[n+]4C3)[C@H](C)[C@H]12 (some centres unmarked) [Biapenem, reference compound]
[1]; Enterobacter cloacae, ECL1004 NMC-A
  MIC: 8 µg/mL
[2]
  MIC: 0.5 to 4 µg/mL
[3]
  MIC: > 4 µg/mL
[4]
  MIC: 0.5 to 4 µg/mL
[5]
  MIC: > 4 µg/mL
[6]
  MIC: 0.5 to 4 µg/mL
[7]
  MIC: > 4 µg/mL
[8]
  MIC: > 4 µg/mL
[9]
  MIC: > 4 µg/mL
[10]
  MIC: > 4 µg/mL
[11]
  MIC: > 4 µg/mL
[12]
  MIC: > 4 µg/mL
[13]
  MIC: > 4 µg/mL
[14]
  MIC: > 4 µg/mL
[15]; Escherichia coli, EC1007 KPC-3
  MIC: 4 µg/mL
[16]
  MIC: 0.125 µg/mL (≈ 0.357 µM)
[17]
  MIC: 8 µg/mL (≈ 22.8 µM)
[18]; Klebsiella pneumoniae, KP1004 KPC-2
  MIC: > 8 µg/mL
[19]; Klebsiella pneumoniae, KP1008 KPC-2
  MIC: 8 µg/mL
[20]
  MIC: 16 µg/mL (≈ 45.7 µM)

## O=C(O)CC1CC[C@H](NC(=O)Cc2ccccc2)B(O)O1 (stereo partly drawn) [Compound 2, 2-((3R)-2-hydroxy-3-(2-phenylacetamido)-1,2-oxaborinan-6-yl)acetic acid]
[21]
  MPC8: X (X = MPC8 of less than 0.16 μg/mL.)

## CC(=O)N[C@H]1CCC(CC(=O)O)OB1O (stereo partly drawn) [Compound 3, 2-((3R)-3-acetamido-2-hydroxy-1,2-oxaborinan-6-yl)acetic acid]
[22]
  IC50: > 4.65 µM
[23]
  IC50: > 4.65 µM
[24]
  IC50: 465 to 4650 nM
[25]
  IC50: > 4.65 µM
[1]; biapenem 1 μg/mL
  BPM MPC1 ECL1004 NMC-A: Y (Y = MPC1 of 1 μg/mL to 5 μg/mL.)
[15]; biapenem 1 μg/mL
  BPM MPC1 EC1007 KPC-3: X (X = MPC1 of less than 1 μg/mL.)
[21]
  MPC8: X (X = MPC8 of less than 0.16 μg/mL.)
[26]
  MPC8: Z (Z = MPC8 of greater than 1 μg/mL.)
[27]
  MPC8: Z (Z = MPC8 of greater than 1 μg/mL.)
[18]; biapenem 1 μg/mL
  BPM MPC1 KP1004 KPC-2: X (X = MPC1 of less than 1 μg/mL.)
[19]; biapenem 1 μg/mL
  BPM MPC1 KP1008 KPC-2: X (X = MPC1 of less than 1 μg/mL.)
